Test results: patent publication EP0755931A1, “Dihydropyridine and pyridine derivatives and process for their preparation” (priority 1995, dated 1997)
pIC50: −log10 of the molar value.

The compounds below were run against T1, human placental aromatase (Homo sapiens, UniProt P11511) (assay: Inhibition of human placental aromatase (in vitro test of Thompson and Siiteri, 3H2O release from [1β-3H]androstenedione)). Details: human placental microsomal fraction as enzyme source; compounds incubated for 15 min at 37°C with 50 nM [1β-3H]androstenedione in the presence of NADPH.
T1 construct: utilizes the human placental microsomal fraction as enzyme source; from tissue; host or cells: human placenta, microsomal fraction
T1 sequence (P11511 1-503): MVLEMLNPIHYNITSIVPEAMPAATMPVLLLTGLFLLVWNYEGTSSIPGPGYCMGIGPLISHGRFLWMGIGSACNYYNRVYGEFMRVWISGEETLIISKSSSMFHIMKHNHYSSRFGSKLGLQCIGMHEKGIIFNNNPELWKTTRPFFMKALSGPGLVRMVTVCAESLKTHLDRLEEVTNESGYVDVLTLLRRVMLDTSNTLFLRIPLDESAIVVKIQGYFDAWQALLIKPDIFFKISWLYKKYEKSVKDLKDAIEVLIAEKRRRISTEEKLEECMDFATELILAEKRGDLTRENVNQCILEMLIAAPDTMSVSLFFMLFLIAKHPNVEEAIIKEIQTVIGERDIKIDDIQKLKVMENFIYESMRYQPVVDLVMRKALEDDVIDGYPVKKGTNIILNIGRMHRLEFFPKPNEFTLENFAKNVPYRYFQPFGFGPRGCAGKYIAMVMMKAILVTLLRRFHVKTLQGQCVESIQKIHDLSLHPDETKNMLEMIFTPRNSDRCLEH
Type: biochemical
Experimental: Estrogens are also involved in the pathogenesis of benign prostatic hyperplasia. Endogenous estrogens are ultimately formed from either androstenedione or testosterone as immediate precursors. The reaction of central importance is the aromatization of the steroidic ring A, which is performed by the enzyme aromatase. […] In this test the aromatization rate of androstenedione into estrone was evaluated by incubating (1β-^3H) androstenedione (50 nM) in the presence of NADPH with the enzyme preparation and by measuring the amount of^3H2O formed during 15 min incubation at 37°C.

pIC50 | Compound
8.77 | CC1=C(C#N)C(c2cccc(-n3ccnc3)c2)C(C#N)=C(C)N1 [FCE 28718, 4-(3-1H-imidazol-1-yl-phenyl)-2,6-dimethyl-1,4-dihydropyridine-3,5-dicarbonitrile]
7.60 | CC1=C(C#N)C(c2cccc(-n3cncn3)c2)C(C#N)=C(C)N1 [FCE 29138, 4-[3-(1,2,4)triazol-1-yl-phenyl]-2,6-dimethyl-1,4-dihydropyridine-3,5-dicarbonitrile]
7.92 | Cc1nc(C)c(C#N)c(-c2cccc(-n3ccnc3)c2)c1C#N [FCE 28717, 4-(3-1H-imidazol-1-yl-phenyl)-2,6-dimethylpyridine-3,5-dicarbonitrile]
8.82 | CCOC(=O)C1=C(C)NC(C)=C(C#N)C1c1cccc(-n2ccnc2)c1 (racemic) [FCE 29013, 4-(3-1H-imidazol-1-yl-phenyl)-2,6-dimethyl-1,4-dihydropyridine-3-carbonitrile-5-carboxylic acid ethyl ester]
